Measured values from patent US20140100286A1, “COMPOSITION FOR PREVENTING OR TREATING INFLAMMATORY DISEASES COMPRISING VERATRIC ACID AS EFFECTIVE COMPONENT” (Pukyong National University Industry-University Cooperation …, priority 2012, published 2014).

Key:
Assay type in all cases: cell-based, murine
IL-1β = IL-1β protein expression, Western blot; conditions: LPS-stimulated RAW264.7 cells, Western blot (FIG. 6)
IL-6 = IL-6 protein expression, Western blot; conditions: LPS-stimulated RAW264.7 cells, Western blot (FIG. 6)
[1] = tested on: inducible nitric oxide synthase (iNOS); assay: iNOS gene and protein expression, RT-PCR and Western blot; conditions: LPS-stimulated RAW264.7 cells, concentration dependent (FIG. 4)
Description: Thus, the present inventors performed an RT-PCR and a Western blot analysis as follows in order to confirm whether or not the veratric acid's mechanism of inhibiting nitric oxide production was operated by regulating expression and protein activity of iNOS as an inducible nitric oxide synthase involved in nitric oxide production.
The prepared murine macrophage RAW264.7 cells treated with the LPS in combination with the veratric acid were used. RNA was extracted and separated from the incubated cells by using 2-mercaptoethanol (Sigma, USA). An RT-PCR was performed by using primers listed in Table 1 with the extracted RNA as a template. Then, after electrophoresis, an expression level of a gene was checked with ultraviolet light.
The prepared murine macrophage cells treated with the LPS in combination with the veratric acid were collected and lysed by using a lysis buffer {50 mM Tris-Cl [pH7.5], 150 mM NaCl, 1 mM DTT, 0.5% NP-40, 1% Triton X-100, 1% deoxycholate, 0.1% SDS and a cocktail of proteinase inhibitors [1 mM PMSF, 1 mM EDTA, 11 μM aprotinin, 11 μM leupeptin, and 11 μM pepstatin A (Intron Biotechnology, Gyeonggi, Korea)]}. Protein samples were electrophoresed by 12% SDS-PAGE and then electrically transferred to a nitrocellulose membrane. Thereafter, the protein samples were allowed to react with primary antibodies capable of recognizing the iNOS. […]

STAT-1 = assay: Phosphorylation of STAT-1, Western blot; conditions: LPS-stimulated macrophage cells, concentration dependent (FIG. 7)
Description: (§1) The prepared murine macrophage cells treated with the LPS in combination with the veratric acid were collected and lysed by using a lysis buffer {50 mM Tris-Cl [pH7.5], 150 mM NaCl, 1 mM DTT, 0.5% NP-40, 1% Triton X-100, 1% deoxycholate, 0.1% SDS and a cocktail of proteinase inhibitors [1 mM PMSF, 1 mM EDTA, 11 μM aprotinin, 11 μM leupeptin, and 11 μM pepstatin A (Intron Biotechnology, Gyeonggi, Korea)]}. Protein samples were electrophoresed by 12% SDS-PAGE and then electrically transferred to a nitrocellulose membrane. Thereafter, the protein samples were allowed to react with primary antibodies capable of recognizing the iNOS. After the membrane was washed and then allowed to react with horseradish peroxidase-linked […] or […] (Cell Signaling Technology Inc., USA). Then, signals were checked by using an enhanced chemiluminescent (ECL) detection system (Pierce, USA).
It is known that secreted IFN-γ promotes phosphorylation of STAT-1 and induces transcription of iNOS, and an activity of the iNOS causes production of nitric oxide and induces inflammation. Therefore, protein expression levels of STAT-1 and phosphorylated STAT-1 were checked through a Western blot analysis performed in the same manner as Example 3 in order to confirm an effect of the veratric acid, which reduced the protein level of the IFN-γ in Example 5, on phosphorylation of STAT-1.

ERK1/2 = assay: Phosphorylation of ERK1/2, Western blot; conditions: LPS-stimulated macrophage cells, Western blot (FIG. 9)
Description: as §1
(§2) Protein expression levels of JNK, p38, and ERK1/2 in the LPS-stimulated macrophage cells were checked through a Western blot analysis performed in the same manner as Example 3 in order to confirm whether or not the veratric acid affected an activity of MAPK as a superordinate signaling system that produced pro-inflammatory cytokines.

NF-κB [2] = assay: Intracellular distribution of NF-κB, immunofluorescent microscopy; conditions: 100 μM veratric acid 1 hour, LPS 12 hours, immunofluorescent microscopy (FIGS. 8C, 8D)
Source text: An NF-κB is a transcription factor and when the NF-κB is activated by phosphorylated IκBα, it is moved into a nucleus and bound to a promoter site such that target molecules can be transcribed. Thus, the present inventors performed a Western blot analysis and an immunofluorescent microscopy as follows in order to confirm whether or not the veratric acid affected protein levels of the NF-κB and the IκBα. That is, protein expression levels of the NF-κB and the IκBα in the LPS-stimulated macrophage cells were checked through the Western blot analysis performed in the same manner as Example 3, and in the immunofluorescent microscopy, after 100 μM veratric acid was treated for 1 hour, LPS was incubated for 12 hours, and 4,6-diamidino-2-phenylindole (DAPI) was treated at room temperature for 15 minutes, the cells were immobilized with 4% formaldehyde and then distribution of the NF-κB in the cells was checked visually.

c-Raf = assay: Phosphorylation of c-Raf at Ser259 and Ser338, Western blot; conditions: LPS-stimulated macrophage cells, Western blot (FIG. 11)
Description: as §1
If c-Raf (RAF proto-oncogene serine/threonine-protein kinase) is phosphorylated at Ser^338, the c-Raf induces expression of iNOS. Thus, the present inventors checked a protein level of the c-Raf in the LPS-stimulated macrophage cells and a phosphorylated protein level at Ser^259 and Ser^338 of the c-Raf through a Western blot analysis performed in the same manner as Example 3 in order to confirm whether or not the veratric acid affected the protein level of the c-Raf.

p38 = assay: Phosphorylation of p38, Western blot; conditions: LPS-stimulated macrophage cells, Western blot (FIG. 9); stronger effect than on JNK, ERK1/2
Description: as §1, §2

[3] = tested on: nitric oxide production in macrophage RAW264.7 cells; assay: Nitric oxide (NO) production, Griess reagent; conditions: LPS 100 ng/ml in combination with veratric acid 50-200 μM, inhibition in proportion to concentration (FIG. 3B)
Description: In order to confirm whether or not the veratric acid has an activity of inhibiting production of nitric oxide that causes inflammation, the following experiment was performed. The prepared macrophage RAW264.7 cells were seeded in a 96-well plate at 1×10^5 cells/well. Each of the cells was treated at different concentrations (0, 50, 100, 150 and 200 μM) of the veratric acid and incubated for 3 hours. The cells were incubated in a culture medium containing 100 ng/ml LPS for 24 hours. Thereafter, a culture solution was acquired. After the culture solution was allowed to react with a Griess reagent, a production level of nitric oxide induced by the LPS was measured at 540 nm by using the ELIZA analyzer (BD PharMingen, USA).

cyclooxygenase-2 (COX-2) = assay: COX-2 gene and protein expression, RT-PCR and Western blot; conditions: LPS-stimulated RAW264.7 cells
[4] = tested on: macrophage RAW264.7 cells; assay: Cytotoxicity of veratric acid, WST-1 cell viability; conditions: up to 200 μM, 3 h pretreatment then 100 ng/ml LPS 24 h
Description: Cell lines used to evaluate cytotoxicity of a veratric acid were macrophage RAW264.7, human embryonic kidney (HEK) 293, and human keratinocyte (HaCaT) cells. For a cytotoxicity experiment, the cell lines were first incubated in a culture solution of DMEM containing 10% fetal bovine serum (FBS) and 1% penicillin (100 U/ml)/streptomycin (100 U/ml) under a condition of 5% CO2 at a temperature of 37° C. Then, the incubated cells were seeded in a 96-well plate at 1×10^5 cells/well. Each of the cells was treated at different concentrations (0, 50, 100, 150 and 200 μM) of a veratric acid and incubated for 3 hours. After the incubation, the cells were stimulated with 100 ng/ml LPS contained in a culture medium for 24 hours. Thereafter, the culture solution was removed, and then, the cells were treated with a solution of WST-1® (Daeil Lab service, Korea) and further incubated for 3 hours. An optical density of the culture solution was measured at 460 nm by using an ELIZA analyzer to analyze cell viability.

IFN-γ = IFN-γ protein expression, Western blot; conditions: LPS-stimulated RAW264.7 cells, Western blot (FIG. 6)
GSK-3β = assay: Phosphorylation of GSK-3β, Western blot; conditions: LPS-stimulated macrophage cells, concentration dependent (FIG. 10)
Description: as §1
A protein expression level of GSK-3β in the LPS-stimulated macrophage cells was checked through a Western blot analysis performed in the same manner as Example 3 in order to confirm whether or not the veratric acid affected phosphorylation of the GSK-3β as a superordinate signaling system that caused inflammatory reactions.

NF-κB [5] = assay: Phosphorylation of NF-κB, Western blot; conditions: LPS-stimulated macrophage cells, reduction in proportion to concentration (FIGS. 8A, 8B)
Description: as §1
(§3) An NF-κB is a transcription factor and when the NF-κB is activated by phosphorylated IκBα, it is moved into a nucleus and bound to a promoter site such that target molecules can be transcribed. Thus, the present inventors performed a Western blot analysis and an immunofluorescent microscopy as follows in order to confirm whether or not the veratric acid affected protein levels of the NF-κB and the IκBα. […]

IκBα = assay: Phosphorylation of IκBα, Western blot; conditions: LPS-stimulated macrophage cells, Western blot (FIGS. 8A, 8B)
Description: as §1, §3

TNF-α = TNF-α protein expression, Western blot; conditions: LPS-stimulated RAW264.7 cells, Western blot (FIG. 6)
JNK = assay: Phosphorylation of JNK, Western blot; conditions: LPS-stimulated macrophage cells, Western blot (FIG. 9)
Description: as §1, §2

COc1ccc(C(=O)O)cc1OC [veratric acid, 3,4-Dimethoxybenzoic acid]
protein expression level of IL-1β (IL-1β): reduced | protein expression level of IL-6 (IL-6): did not affect | gene expression of iNOS ([1]; RT-PCR): decreased or inhibited strongly | protein expression of iNOS ([1]; Western blot): decreased or inhibited strongly | phosphorylation of the STAT-1 (STAT-1): reduced | phosphorylation of the ERK1/2 (ERK1/2): inhibited | movement of the NF-κB into the nucleus (NF-κB [2]): inhibited | phosphorylation at Ser259 of the c-Raf (c-Raf): did not affect | phosphorylation at Ser338 of the c-Raf (c-Raf): inhibited | phosphorylation of the p38 (p38): inhibited | excessive production of nitric oxide [3]: inhibited | gene expression of COX-2 (cyclooxygenase-2 (COX-2); RT-PCR (FIG. 5)): did not affect | protein expression of COX-2 (cyclooxygenase-2 (COX-2); Western blot (FIG. 5)): did not affect | cytotoxicity (cell viability) [4]: did not show cytotoxicity | protein expression level of IFN-γ (IFN-γ): reduced | phosphorylation of the GSK-3β (GSK-3β): remarkably inhibited | protein expression of the phosphorylated NF-κB (NF-κB [5]): remarkably reduced | phosphorylated IκBα (IκBα): reduced | protein expression level of TNF-α (TNF-α): did not affect | phosphorylation of the JNK (JNK): inhibited
